# Measurements from ChEMBL document CHEMBL1201862, “PubChem BioAssay data set” (2004).
# Calls of active or inactive are those of the source.
# How the values were obtained:
# Cytochrome P450 2C19 = Cytochrome P450 2C19 (Homo sapiens, UniProt P33261); experiment: Cytochrome panel assay with activity outcomes. Panel member name: p450-cyp2c19 Compounds with AC50 equal or less than 10 uM are considered active; assay type: functional; details: read-out: AC50
# Cytochrome P450 2C9 = Cytochrome P450 2C9 (Homo sapiens, UniProt P11712)
# Cytochrome P450 2D6 = Cytochrome P450 2D6 (Homo sapiens, UniProt P10635);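 further: CYP2D6 member of a cytochrome P450 panel assay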
# Cytochrome P450 3A4 = Cytochrome P450 3A4 (Homo sapiens, UniProt P08684);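 further: CYP3A4 tested as one member of a cytochrome P450 panel screen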
# P388/ADR = experiment: cells; assay type: functional; details: Mus musculus
# SN12K1 = experiment: cells; assay type: functional; details: Homo sapiens
# P388 = experiment: cells; assay type: functional; details: Mus musculus
# Paired box protein Pax-8 = Paired box protein Pax-8 (Homo sapiens, UniProt Q06710); experiment: PAX8 transcriptional activity inhibition in RMG-I – RMG-I cells, luciferase, cherry-pick, dose response (AID 687027); assay type: functional, cell-based;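 further: luciferase reporter driven by Pax8 target thyroperoxidase promoter measured by SteadyGlo luminescence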
# Paired box protein Pax-8, sequence (Q06710 whole entry): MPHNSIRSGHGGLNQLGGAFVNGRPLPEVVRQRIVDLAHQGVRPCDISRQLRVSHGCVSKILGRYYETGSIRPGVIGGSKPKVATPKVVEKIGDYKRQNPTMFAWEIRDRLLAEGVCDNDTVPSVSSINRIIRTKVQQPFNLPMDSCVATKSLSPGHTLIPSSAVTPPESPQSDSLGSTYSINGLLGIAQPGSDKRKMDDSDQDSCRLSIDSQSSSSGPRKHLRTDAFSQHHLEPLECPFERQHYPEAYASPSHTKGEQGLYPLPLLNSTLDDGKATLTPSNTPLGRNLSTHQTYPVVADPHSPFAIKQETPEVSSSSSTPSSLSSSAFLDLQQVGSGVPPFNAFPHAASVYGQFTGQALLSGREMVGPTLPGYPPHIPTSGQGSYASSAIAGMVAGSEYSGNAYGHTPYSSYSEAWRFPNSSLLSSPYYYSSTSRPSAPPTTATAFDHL
# Cytochrome P450 2C9, sequence (P11712 whole entry): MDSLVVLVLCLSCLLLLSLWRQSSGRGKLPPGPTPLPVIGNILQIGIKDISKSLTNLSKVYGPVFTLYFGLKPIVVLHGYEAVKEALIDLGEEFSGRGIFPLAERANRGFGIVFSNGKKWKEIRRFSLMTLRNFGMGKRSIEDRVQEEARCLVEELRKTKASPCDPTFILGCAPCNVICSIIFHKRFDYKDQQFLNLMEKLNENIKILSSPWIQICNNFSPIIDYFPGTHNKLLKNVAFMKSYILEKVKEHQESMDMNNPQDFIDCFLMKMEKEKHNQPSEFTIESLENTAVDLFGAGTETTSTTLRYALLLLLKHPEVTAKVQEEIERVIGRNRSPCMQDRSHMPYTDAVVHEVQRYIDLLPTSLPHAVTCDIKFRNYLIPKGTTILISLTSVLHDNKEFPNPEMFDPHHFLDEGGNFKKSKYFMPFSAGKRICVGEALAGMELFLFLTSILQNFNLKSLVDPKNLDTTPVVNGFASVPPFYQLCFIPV
# Cytochrome P450 2C19, sequence (P33261 whole entry): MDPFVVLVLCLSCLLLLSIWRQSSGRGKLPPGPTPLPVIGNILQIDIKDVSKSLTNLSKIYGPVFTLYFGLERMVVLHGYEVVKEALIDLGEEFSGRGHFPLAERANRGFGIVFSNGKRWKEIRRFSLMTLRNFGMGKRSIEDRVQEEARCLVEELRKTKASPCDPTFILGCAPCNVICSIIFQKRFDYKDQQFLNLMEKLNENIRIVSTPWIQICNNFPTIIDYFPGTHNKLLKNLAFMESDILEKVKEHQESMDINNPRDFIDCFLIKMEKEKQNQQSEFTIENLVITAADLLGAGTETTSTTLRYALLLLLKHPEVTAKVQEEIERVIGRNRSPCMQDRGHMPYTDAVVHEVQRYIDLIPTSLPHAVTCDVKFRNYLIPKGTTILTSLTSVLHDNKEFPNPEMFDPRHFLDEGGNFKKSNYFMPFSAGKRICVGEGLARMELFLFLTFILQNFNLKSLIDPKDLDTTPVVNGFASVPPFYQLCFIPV
# Cytochrome P450 2D6, sequence (P10635 whole entry): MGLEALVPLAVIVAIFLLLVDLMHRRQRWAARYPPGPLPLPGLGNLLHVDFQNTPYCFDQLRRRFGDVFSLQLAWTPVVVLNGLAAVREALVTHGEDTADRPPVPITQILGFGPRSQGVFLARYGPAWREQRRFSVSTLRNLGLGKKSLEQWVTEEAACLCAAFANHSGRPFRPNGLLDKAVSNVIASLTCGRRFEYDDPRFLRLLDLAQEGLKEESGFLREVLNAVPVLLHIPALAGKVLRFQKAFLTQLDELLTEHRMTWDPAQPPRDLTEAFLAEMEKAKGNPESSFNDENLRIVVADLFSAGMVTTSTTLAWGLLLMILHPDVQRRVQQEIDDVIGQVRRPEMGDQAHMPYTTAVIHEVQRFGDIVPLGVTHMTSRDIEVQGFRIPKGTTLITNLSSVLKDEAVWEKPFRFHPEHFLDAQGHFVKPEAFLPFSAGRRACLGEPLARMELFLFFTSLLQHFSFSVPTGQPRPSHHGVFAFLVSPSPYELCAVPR
# Cytochrome P450 3A4, sequence (P08684 whole entry): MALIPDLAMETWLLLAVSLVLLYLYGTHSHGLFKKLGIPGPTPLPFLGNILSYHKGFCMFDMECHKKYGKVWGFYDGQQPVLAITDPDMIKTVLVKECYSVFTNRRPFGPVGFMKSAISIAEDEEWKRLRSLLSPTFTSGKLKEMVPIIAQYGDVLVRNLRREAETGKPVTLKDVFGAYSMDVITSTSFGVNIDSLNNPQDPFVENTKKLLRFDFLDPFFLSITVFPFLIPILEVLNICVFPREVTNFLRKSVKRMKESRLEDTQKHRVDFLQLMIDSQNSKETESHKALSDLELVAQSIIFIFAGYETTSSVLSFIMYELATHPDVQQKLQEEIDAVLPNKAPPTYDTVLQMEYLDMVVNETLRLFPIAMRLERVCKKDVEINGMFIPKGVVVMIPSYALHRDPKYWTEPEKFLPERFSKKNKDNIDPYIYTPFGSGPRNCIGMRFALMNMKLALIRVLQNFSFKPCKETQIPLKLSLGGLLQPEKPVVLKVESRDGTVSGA
AC50 (Cytochrome P450 2C19),AC50 (Cytochrome P450 2C9),AC50 (Cytochrome P450 2D6),SMILES,also measured
25.1 µM (inconclusive),15.8 µM (inconclusive),–,O=C(O)Cc1ccc2c(c1)N(S(=O)(=O)c1cccc(C(F)(F)F)c1)CC(C(=O)O)O2 (stereo not given),–
7.94 µM (inconclusive),–,39.8 µM (inconclusive),N#Cc1ccccc1-c1ccc2ncnc(NC3CC3)c2c1,–
1.78 µM (inconclusive),–,15.8 µM (inconclusive),OC(COc1ccc(OCC(O)CN2CCCCCC2)cc1)CN1CCCCCC1 (stereo not given),–
–,10 µM (inconclusive),7.94 µM (inconclusive),COc1cccc(C2NC(c3cccc(OC)c3O)C(C)C(=O)C2C)c1O (stereo not given),–
–,–,25.1 µM (inconclusive),COc1ncc2nc(CCc3ccccc3)c(=O)n(CCC#N)c2n1,–
25.1 µM (inconclusive),15.8 µM (inconclusive),–,COc1cccc(OCc2nnc(SCC(=O)NCc3ccco3)n2C)c1,–
–,–,39.8 µM (inconclusive),Cc1noc(C)c1-c1ccc2ncnc(NCc3ccccc3)c2c1,–
–,–,25.1 µM (inconclusive),O=S(=O)(c1ccccc1)N1CCC2(CCN(Cc3nccs3)CC2)CC1,–
31.6 µM (inconclusive),3.55 µM (inconclusive),–,CCOC(=O)CN(c1ccccn1)S(=O)(=O)c1ccccc1,–
–,–,14.1 µM (inconclusive),Cc1ccc(C(c2ccc(C)o2)c2cccc([N+](=O)[O-])c2O)o1,AC50 (Cytochrome P450 3A4): 28.2 µM (inconclusive)
–,–,20 µM (inconclusive),O=C(c1cc(-c2ccc(Cl)cc2Cl)on1)N1CCN(C(=O)c2ccco2)CC1,–
–,28.2 µM (inconclusive),15.8 µM (inconclusive),COc1cc(NC(=O)COC(=O)c2nc3nc(C)cc(C)n3n2)cc(OC)c1,–
–,22.4 µM (inconclusive),–,CCOC(=O)CSC1=C(C#N)C(C)C2=C(O)CCCC2=N1 (stereo not given),–

# Continued, compound first:
SMILES,AC50 (Cytochrome P450 2C19),AC50 (Cytochrome P450 2C9),AC50 (Cytochrome P450 2D6),also measured
CN(Cc1ccco1)c1cc(-c2cccc(NS(C)(=O)=O)c2)ncn1,31.6 µM (inconclusive),–,25.1 µM (inconclusive),–
CC1=C(C(=O)Nc2ccccc2)C(c2ccco2)NC(S)=N1 (stereo not given),–,12.6 µM (inconclusive),–,–
Nc1nc(SCCc2ccccc2)c2nc[nH]c2n1,–,3.98 µM (inconclusive),3.98 µM (inconclusive),–
N#Cc1cc(-c2ccc(Cl)cc2)cnc1Sc1ccc(F)cc1,1 µM (inconclusive),7.94 µM (inconclusive),–,AC50 (Cytochrome P450 3A4): 14.1 µM (inconclusive)
COC1=C(C)C(=O)C2=C(C1=O)C(CO)N1C(C#N)C3CC4C(C1C2N1CCOC41)N3C (stereo not given),–,–,–,GI50 (P388/ADR): 0.01 µM (active); GI50 (SN12K1): 0.294 µM (active); GI50 (P388): < 0.01 µM (active); AC50 (Paired box protein Pax-8): < 0.26 µM (active)
CN(C)CCNC(=O)c1cc(Cl)cc2ccc(-c3ccccc3)nc12,–,–,–,GI50 (P388/ADR): 1.47 µM (inactive); GI50 (SN12K1): 1.77 µM (inactive); GI50 (P388): 0.476 µM (active)
Oc1c(CNCCCN2CCCC2)cc(Cl)c2cccnc12,–,–,–,GI50 (P388/ADR): 1.1 µM (active); GI50 (SN12K1): 0.942 µM (active); GI50 (P388): 1.69 µM (inactive)
COc1cc(CCCOC2OC(COC3OCC(O)C(O)C3O)C(O)C(O)C2O)cc2cc(-c3ccc4c(c3)OCO4)oc12 (stereo not given),–,–,–,GI50 (P388/ADR): > 175 µM (inactive); GI50 (SN12K1): > 175 µM (inactive); GI50 (P388): > 175 µM (inactive)
O=NN(CCCl)C(=O)NC1CCCCC1 [LOMUSTINE],–,–,–,GI50 (P388/ADR): 4.56 µM (inactive); GI50 (SN12K1): 32.6 µM (inactive); GI50 (P388): 4.23 µM (inactive)
